Source: ChEMBL document CHEMBL1152765, “Discovery of new inhibitors of the bacterial peptidoglycan biosynthesis enzymes MurD and MurF by structure-based virtual screening” (Bioorg Med Chem, 2009)
≈ marks a conversion by molar mass, not a printed value. Calls of active or inactive are those of the source. The rule behind the calls is not given here.

What was measured:
Escherichia coli [1] = assay: Inhibition of Escherichia coli MurF assessed as residual activity at 250 uM by malachite green assay
Escherichia coli [2] = assay: Antibacterial activity against Escherichia coli 1411 after 18 hrs by broth microdilution method; assay type: functional, organism-based
Escherichia coli [3] = assay: Antibacterial activity against AcrAB deficient Escherichia coli SM1411 after 18 hrs by broth microdilution method; assay type: functional, organism-based
Staphylococcus aureus = assay: Antibacterial activity against Staphylococcus aureus 8325-4 after 18 hrs by broth microdilution method; assay type: functional
Escherichia coli [4] = assay: Inhibition of Escherichia coli MurD assessed as residual activity at 250 uM by malachite green assay
[5] = Inhibition of Escherichia coli MurD assessed as blockade of addition of D-[14C]Glu to UDP-MurNAc-L-Ala
[6] = Inhibition of Escherichia coli MurF

| SMILES | Activity (Escherichia coli [1]) [%] | Activity (Escherichia coli [4]) [%] | IC50 [5] [µM] | IC50 [6] [µM] | MIC (Staphylococcus aureus) [µg/mL] | Activity (Escherichia coli [2]) | Activity (Escherichia coli [3]) | Activity (Staphylococcus aureus) |
| --- | --- | --- | --- | --- | --- | --- | --- | --- |
| O=S(=O)(O)c1cc(/N=[N+](\[O-])c2cc(S(=O)(=O)O)c3ccccc3c2)cc2ccccc12 | < 50 | – | – | – | – | inactive | inactive | inactive |
| O=C(O)c1cc2c(cc1S(=O)(=O)O)C1C(C3C2C2(Cl)C(Cl)=C(Cl)C3(Cl)C2(Cl)Cl)C2(Cl)C(Cl)=C(Cl)C1(Cl)C2(Cl)Cl (stereo unspecified) | – | < 50 | 34 | – | – | inactive | inactive | inactive |
| O=C(O)C1C(C(=O)O)C2(Cl)C(Cl)=C(Cl)C1(Cl)C2(Cl)Cl (stereo unspecified) | – | < 50 | – | – | – | inactive | inactive | inactive |
| O=C(O)/C=C/c1c2ccc(=O)c(O)c-2oc2c(O)c(O)ccc12 | – | < 50 | 47 | – | – | inactive | inactive | inactive |
| FC(F)(F)c1nc2ccc(SSc3ccc4nc(C(F)(F)F)[nH]c4c3)cc2[nH]1 | < 50 | – | – | – | – | inactive | inactive | inactive |
| CSc1ccc2c(c1)c(CCN)c(C)n2Cc1ccccc1Cl | < 50 | – | – | – | – | inactive | inactive | inactive |
| CCCCCCCCCCCCN(C)C | < 50 | – | – | – | – | inactive | inactive | inactive |
| CC1C2C=CC1C(c1c3ccc(=O)c(O)c-3oc3c(O)c(O)ccc13)C2C(=O)O (stereo unspecified) | – | – | 43 | – | – | inactive | inactive | inactive |
| CCOc1ccc2c(c1)C=C/C(=C/C=C1\C=C(C)c3cccnc3C1=O)N2C | < 50 | – | – | – | – | inactive | inactive | inactive |
| O=C(O)c1c(Br)c(Br)c(Br)c(Br)c1C1c2ccc(O)cc2Oc2cc(O)ccc21 | – | < 50 | 10 | – | – | inactive | inactive | inactive |

More lines, main results first:

| Activity (Escherichia coli [1]) [%] | Activity (Escherichia coli [4]) [%] | IC50 [5] [µM] | IC50 [6] [µM] | MIC (Staphylococcus aureus) [µg/mL] | SMILES | Activity (Escherichia coli [2]) | Activity (Escherichia coli [3]) | Activity (Staphylococcus aureus) |
| --- | --- | --- | --- | --- | --- | --- | --- | --- |
| < 50 | – | – | – | – | O=C1/C(=N/CCc2cc(Br)c(O)c(Br)c2)C=C(O)c2cccnc21 | inactive | inactive | inactive |
| < 50 | – | – | – | – | Sc1nnc(SCc2ccccc2Cl)c2nc[nH]c12 | inactive | inactive | inactive |
| < 50 | – | – | – | – | O=S(=O)(O)c1ccc2c(/N=N/c3c(O)ccc4ccccc34)cccc2c1 | inactive | inactive | inactive |
| < 50 | – | – | – | – | Nc1c(S(=O)(=O)O)cc(Nc2cccc(S(N)(=O)=O)c2)c2c1C(=O)c1ccccc1C2=O | inactive | inactive | inactive |
| < 50 | – | – | – | – | O=C(O)c1c(Cl)c(Cl)c(Cl)c(Cl)c1C(=O)Nc1ccc2cn[nH]c2c1 | inactive | inactive | inactive |
| < 50 | – | – | 63 | 128 (≈ 302 µM) | Oc1nc(S)nc(SCc2c(Cl)c(Cl)c(Cl)c(Cl)c2Cl)n1 | – | Active | – |
| < 50 | – | – | – | – | Oc1ccccc1C(Sc1nc2ccccc2s1)Sc1nc2ccccc2s1 | inactive | inactive | inactive |
